Results on eleven compounds are retold here after patent publication US11999746B2, “Compounds” (GlaxoSmithKline Intellectual Property Development Limited, priority 2014, dated 2024).

Structures are written as SMILES.

For assay [1], the target named is T1, recombinant human Lp-PLA2 (Homo sapiens, UniProt Q13093).
T1 sequence (Q13093 22-441): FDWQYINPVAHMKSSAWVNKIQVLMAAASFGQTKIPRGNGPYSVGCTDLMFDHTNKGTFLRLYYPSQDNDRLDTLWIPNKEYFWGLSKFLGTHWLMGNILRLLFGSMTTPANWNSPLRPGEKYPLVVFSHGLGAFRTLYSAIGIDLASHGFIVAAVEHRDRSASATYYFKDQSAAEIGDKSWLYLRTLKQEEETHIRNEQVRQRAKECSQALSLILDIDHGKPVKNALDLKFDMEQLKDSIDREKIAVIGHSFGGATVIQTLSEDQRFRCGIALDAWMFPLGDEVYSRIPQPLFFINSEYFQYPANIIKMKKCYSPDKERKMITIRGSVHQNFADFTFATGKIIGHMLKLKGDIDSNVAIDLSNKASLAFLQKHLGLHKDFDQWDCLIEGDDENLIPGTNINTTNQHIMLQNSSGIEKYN
The assay can be described thus: (1a) PED6 assay, recombinant human Lp-PLA2 (rhLp-PLA2). The following applies: Examples 1-167 and 413-430 were tested here, one experiment or average of multiple experiments, read-out: rhLp-PLA2 (pIC50) (converted). It is filed as biochemical. In outline:
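PED6 (2 μM final after 1:1 addition of 4 μM stock) cleavage by rhLp-PLA2 (4 nM working solution) in 50 mM HEPES pH 7.4, 150 mM NaCl, 1 mM CHAPS; compounds preincubated with enzyme 30 minutes, reaction 20 min at room temperature. Fluorescence at ex 480/em 540; pIC50 from curve fit.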

The target in assay [2] is T2, Lp-PLA2 in human plasma (Homo sapiens, UniProt Q13093).
T2 construct: from tissue; host or cells: pooled human plasma
T2 sequence (Q13093 22-441): T1 sequence (Q13093 22-441)
Put plainly: (3a) Lp-PLA2 human plasma Thio-PAF assay. The format is biochemical. The following applies: (3a) Thio-PAF assay, pooled human plasma; Examples 1-265 and 413-430 were tested here; read-out: pIC50 in the Lp-PLA2 human plasma assay (converted). The method, boiled down: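 Pooled human plasma preincubated 30 min with serially diluted compound, then given 2-thio-PAF substrate with CPM and NEM in 50 mM HEPES pH 7.4, 150 mM NaCl, 1 mM CHAPS. Reaction quenched with TFA after 2 min; CPM thiol-adduct fluorescence read at ex 380/em 485 after 40 min; pIC50 reported.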

Consider `N#Cc1cc(COc2cc3n(c(=O)n2)CC2CCCN32)ccc1Oc1cc(F)cc(F)c1` (stereo not shown) [Example E87, 2-(3,5-Difluorophenoxy)-5-(((1-oxo-1,6,7,8,8a,9-hexahydropyrrolo[1,2′:3,4]imidazo[1,2-c]pyrimidin-3-yl)oxy)methyl)benzonitrile], for which the IC50 in assay [1] is not above 1 nM; in assay [2], not above 100 nM.
`Cc1ccc(Oc2c(F)cc(COc3cc4n(c(=O)n3)C[C@@H]3COCCN43)cc2F)cn1` [Example E118, (R)-7-((3,5-difluoro-4-((6-methylpyridin-3-yl)oxy)benzyl)oxy)-3,4,11,11atetrahydropyrimido[6′,1′:2,3]imidazo[5,1-c][1,4]oxazin-9(1H)-one]: the values for the IC50 in assay [1] and in assay [2] were not above 1 nM and not above 100 nM, respectively.
Taken in the same sequence, the figures for `O=c1nc(OCc2ccc(Oc3cncc(C(F)(F)F)c3)c(F)c2)cc2n1C[C@@H]1CCCCN21` [Example E42, (S)-3-((3-fluoro-4-((5-(trifluoromethyl)pyridin-3-yl)oxy)benzyl)oxy)-6,7,8,9,9a,10-hexahydro-1H-pyrido[1′,2′:3,4]imidazo[1,2-c]pyrimidin-1-one] were not above 1 nM and not above 100 nM.
With `CN1CCN2c3cc(OCc4cc(F)c(Oc5cnn(C)c5)c(F)c4)nc(=O)n3CC2C1` (stereo not shown) [Example E167, 7-((3,5-Difluoro-4-((1-methyl-1H-pyrazol-4-yl)oxy)benzyl)oxy)-2-methyl-3,4,11,11a-tetrahydro-1H-pyrazino[1,2′:3,4]imidazo[1,2-c]pyrimidin-9(2H)-one], the IC50 was not above 100 nM in assay [1] and not above 10000 nM in assay [2].
With `O=c1nc(OCc2cc(F)cc(Cl)c2)cc2n1CC1CCCCN21` (stereo not shown) [Example E29, 3-((3-Chloro-5-fluorobenzyl)oxy)-6,7,8,9,9a,10-hexahydro-1H-pyrido[1′,2′:3,4]imidazo[1,2-c]pyrimidin-1-one], the IC50 in assay [1] was not above 100 nM; in assay [2], not above 10000 nM.
As to `O=c1nc(OCc2cc(F)c(Oc3ccnc(C(F)(F)F)c3)c(F)c2)cc2n1CC1OCCCN21` (single isomer, unassigned) [Example E162, 7-((3,5-difluoro-4-((2-(trifluoromethyl)pyridin-4-yl)oxy)benzyl)oxy)-3,4,11,11a-tetrahydropyrimido[6′,1′:2,3]imidazo[5,1-b][1,3]oxazin-9(2H)-one], the results for the IC50 in assay [1] and in assay [2] were not above 1 nM and not above 100 nM, respectively.
Taken in the same sequence, the figures for `CCCn1cc(Oc2c(F)cc(COc3cc4n(c(=O)n3)C[C@@H]3COCCN43)cc2F)cn1` [Example E122, (R)-7-((3,5-difluoro-4-((1-propyl-1H-pyrazol-4-yl)oxy)benzyl)oxy)-3,4,11,11atetrahydropyrimido[6′,1′:2,3]imidazo[5,1-c][1,4]oxazin-9(1H)-one] were not above 100 nM and not above 10000 nM.
On to `O=c1nc(NCc2cccc(F)c2)cc2n1C[C@H]1CCCN21` [Example E104, (R)-3-((3-fluorobenzyl)amino)-7,8,8a,9-tetrahydropyrrolo[1′,2′:3,4]imidazo[1,2-c]pyrimidin-1(6H)-one], for which the results for the IC50 in assay [1] and in assay [2] were not above 100 nM and not above 10000 nM, respectively.
Turning to `O=c1nc(OCc2ccc(F)c(Cl)c2)cc2n1CC1CCCCN21` (stereo not shown) [Example E27, 3-((3-Chloro-4-fluorobenzyl)oxy)-6,7,8,9,9a,10-hexahydro-1H-pyrido[1′,2′:3,4]imidazo[1,2 c]pyrimidin-1-one], the figures for the IC50 in assay [1] and in assay [2] were not above 100 nM and not above 10000 nM, respectively.
For the compound `O=c1nc(OCc2cccc(F)c2)cc2n1C[C@@H]1COCCN21` [Example E132, (R)-7-((3-fluorobenzyl)oxy)-3,4,11,11a-tetrahydropyrimido[6′,1′:2,3]imidazo[5,1-c][1,4] oxazin-9(1H)-one], the figures for the IC50 in assay [1] and in assay [2] were not above 100 nM and not above 10000 nM, respectively.
In the case of `O=c1nc(OCc2cc(F)cc(F)c2)cc2n1C[C@H]1COCN21` [Example E147, (S)-6-((3,5-difluorobenzyl)oxy)-10,10a-dihydro-1H-oxazolo[3′,4′:3,4]imidazo[1,2-c] pyrimidin-8(3H)-one], the IC50 in assay [1] was not above 100 nM; in assay [2], not above 10000 nM.
